Results as given in patent US10618886B1, “Compounds as neuronal histamine receptor-3 antagonists and uses thereof” (XW LABORATORIES INC., priority 2018, dated 2020).

Key:
[1] = biological target: T1, histamine H3 receptor (hH3R) (Homo sapiens (Human), UniProt Q9Y5N1); assay: [35S]-GTPγS binding assay, inverse agonist mode, HEK293/Ga15/hH3R membranes; assay type: biochemical; conditions: no agonist, 10 points, 3-fold dilution from 1 μM
Method: (§1) The histamine H3 receptors mediate the histamine signals in CNS and peripheral nervous system. Histamine H3 receptors couple directly to a Gi/Go, resulting in subsequent GTPγδ binding. Although GTPγδ binding assays are carried out using membrane preparations in the similar way as radioligand binding assays, these are functional assays and can be used to differentiate agonist, antagonist, and inverse agonist activities. Such assays are carried out using [^35S]-guanosine-5′-O-(3-thio) triphosphate which provides a radioactive ligand with high affinity for G-protein a subunits that is highly resistant to the inherent GTPase activity of a subunits, such that it remains bound for sufficient periods of time to allow counting of radioactivity. The GTPγδ binding assay was performed using HEK293/Ga15/hH3R cell line with high histamine H3 receptors expression to determine H3 receptor GTPγδ binding affinity of representative compounds.
(§2) 1. [^35S]-GTPγδ binding assay for determining antagonist and inverse agonist pharmacological parameters of histamine H3 receptor ligands:
(§3) Experimental procedure: 1) Membrane preparation for HEK293/Ga15/hH3R; 2) Standard binding assay. Briefly, for membrane […], HEK293/Ga15/hH3R cells were grown to confluence, harvested and the cell pellets were suspended in TEL buffer (50 mM Tris-HCl buffer, 1 mM EGTA, 0.1 mM PMSF). Homogenate and centrifuge at 1,000 g for 10 min. Centrifuge the supernatant at 46,000 g for 30 min. Suspend the membrane pellet in 50 mM Tris with 0.32 M sucrose, pH 7.0. Aliquot at 1 mg protein/mL. Keep frozen and store at −80° C. until use. All compounds were prepared by dissolving in DMSO to make 10 mM stock. The 10 mM stock was used as top concentration […] to carry out 10-points, 3-fold dilution scheme using DMSO in a 96-well plate to make the compound dose plate. H3R GTPγδ binding assay was performed as followings: thaw the membrane at 37° C., chill on ice, add GDP and the membrane to assay buffer (50 mM Tris-HCl, 100 mM NaCl, 5 mM MgCl2, pH 7.4, and 0.2%, BSA). Stay on ice for 20 min. […] Add 20 μL [^35S]-GTPγδ (final 200 pM) and incubate at room temperature for 60 min. For antagonist mode: Add 20 μL agonist (R-alpha-methylhistamine, final concentration 1 μM), 20 μL testing compound (final top concentration 1 μM, 3-fold dilution, 10 points), 20 μL [^35S]-GTPγδ (final 200 pM), 140 μL membrane solution (total 200 μL, GDP 10μM, membrane protein 20 μg/well) to the assay plate. Incubate at room temperature for 60 min. Filter the assay plate on GF/C (non-PEI coated) plate to stop the assay. Dry GF/C plate for 1 h. Add 50 μL scintillation fluid and count on the MicroBeta.
(§4) Data Analysis: The CPM values were calculated into % of inhibition with the following formula:
For inverse agonist mode: % of inhibition=(DMSO control CPM−Compound CPM)/(DMSO control CPM−GTP control CPM)×100.
(§5) IC50s were calculated using Prism5 with log(inhibitor) vs. response equation.

[2] = biological target: T1, histamine H3 receptor (hH3R); assay: [35S]-GTPγS binding assay, antagonist mode, HEK293/Ga15/hH3R membranes; assay type: biochemical; conditions: agonist R-alpha-methylhistamine 1 μM, 10 points, 3-fold dilution from 1 μM
Method: as §1, §2, §3, §4
For antagonist mode: % of inhibition=(R-alpha-methyl-histamine control CPM−Compound CPM)/(R-alpha-methyl-histamine control CPM−DMSO control CPM)×100.
as §5

T1 sequence (Q9Y5N1 whole entry): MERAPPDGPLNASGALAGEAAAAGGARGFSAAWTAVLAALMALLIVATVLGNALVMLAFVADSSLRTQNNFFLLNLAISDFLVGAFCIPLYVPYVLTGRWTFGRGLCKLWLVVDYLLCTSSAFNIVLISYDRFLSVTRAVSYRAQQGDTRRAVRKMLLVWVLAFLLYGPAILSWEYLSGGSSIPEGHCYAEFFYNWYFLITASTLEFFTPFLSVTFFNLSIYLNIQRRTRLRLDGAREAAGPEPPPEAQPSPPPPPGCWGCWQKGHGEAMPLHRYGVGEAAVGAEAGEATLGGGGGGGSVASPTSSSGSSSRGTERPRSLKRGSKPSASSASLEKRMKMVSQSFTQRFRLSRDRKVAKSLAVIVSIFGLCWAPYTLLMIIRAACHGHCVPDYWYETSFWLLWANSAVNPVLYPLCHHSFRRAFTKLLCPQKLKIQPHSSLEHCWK

Row | Compound | IC50 [1] [nM] | IC50 [2] [nM]
1 | COc1cc(OCCCN2CCCC2)ccc1-n1c(C)nc2ccc(S(F)(F)(F)(F)F)cc2c1=O [VI, 3-(2-methoxy-4-(3-(pyrrolidin-1-yl)propoxy)phenyl)-2-methyl-6-(pentafluorosulfanyl)quinazolin-4(3H)-one] | 5.5 | 5.36
2 | Cc1nc2ccc(S(F)(F)(F)(F)F)cc2c(=O)n1-c1ccc(OCCCN2CCC(C)C2)cc1 (centres unmarked) [VII, 2-methyl-3-(4-(3-(3-methylpyrrolidin-1-yl)propoxy)phenyl)-6-(pentafluorosulfanyl)quinazolin-4(3H)-one] | 10.5 | 3.44
3 | Cc1nc2ccc(S(F)(F)(F)(F)F)cc2c(=O)n1-c1ccc(OC2CCN(C(=O)C3CCCCC3)CC2)cc1 [XIX, 3-(4-((1-(cyclohexanecarbonyl)piperidin-4-yl)oxy)phenyl)-2-methyl-6-(pentafluorosulfanyl)quinazolin-4(3H)-one] | > 1000 | > 1000
4 | Cc1nc2ccc(S(F)(F)(F)(F)F)cc2c(=O)n1-c1ccc(OC2CCN(C3CCCC3)CC2)cc1 [XVI] | 175 | 116
5 | Cc1nc2ccc(S(F)(F)(F)(F)F)cc2c(=O)n1-c1ccc(OC2CCN(C(=O)C3CCN(C)CC3)CC2)cc1 [XX, 2-methyl-3-(4-((1-(1-methylpiperidine-4-carbonyl)piperidin-4-yl)oxy)phenyl)-6-(pentafluorosulfanyl)quinazolin-4(3H)-one] | 50.5 | 814
6 | Cc1nc2ccc(S(F)(F)(F)(F)F)cc2c(=O)n1-c1ccc(OC2CCN(C(=O)C3CCOCC3)CC2)cc1 [XXI, 2-methyl-3-(4-((1-(tetrahydro-2H-pyran-4-carbonyl)piperidin-4-yl)oxy)phenyl)-6-(pentafluorosulfanyl)quinazolin-4(3H)-one] | 286 | > 1000
7 | COc1cc(OC2CCN(C(=O)C3CCOCC3)CC2)ccc1-n1c(C)nc2ccc(S(F)(F)(F)(F)F)cc2c1=O [XXII, 3-(2-methoxy-4-((1-(tetrahydro-2H-pyran-4-carbonyl)piperidin-4-yl)oxy)phenyl)-2-methyl-6-(pentafluorosulfanyl)quinazolin-4(3H)-one] | 229 | 242
